Laboratory results taken from paper PMC13210772, “Dual FLT3/MAPK14 Proteolysis-Targeting Chimera (PROTAC) Induces Potent Acute Myeloid Leukemia Cell Death” (Pharmaceuticals, 2026).

Columns and labels:
Assay in all cases: NanoBRET CELLinib128
Type in all cases: binding
ULK3v1 = target: T1, ULK3v1 (Homo sapiens, UniProt Q6PHR2); conditions: 1 µM; 100% no effect, 0% complete tracer displacement
T1 construct: Full-length kinase ORF (Promega, Madison, WI, USA) cloned in frame with a NanoLuc-vector; host or cells: HEK293T
Procedure: (§1) To get an impression about the binding strength of the PROTAC MA191 and the reference inhibitor MA68 to other kinases besides FLT3-ITD the binding on a kinase panel of further 128 representative protein kinases at 1 μM concentration was tested using the NanoBRET^TM cellular target engagement assay (CELLinib128 assay, CELLinib GmbH, Frankfurt, Germany). […] In none of the 128 kinases MA191 was able to displace the tracer (inhibitor) used by more than 50%, Table S1, Supplementary Information).
(§2) The CELLinib128 assay was performed by CELLinib GmbH, Frankfurt (Germany) as described previously. In brief: Full-length kinase ORF (Promega, Madison, WI, USA) cloned in frame with a NanoLuc-vector was transfected into HEK293T cells in Opti-MEM without phenol red (Life Technologies, Carlsbad, CA, USA) at a density of 2 × 10^5 cells/mL using FuGENE HD (Promega, E2312) and proteins were allowed to express for 20 h. For CDKs, where indicated below, an excess of an activator without an NLuc-fusion was cotransfected. […] The system was allowed to equilibrate at 37 °C for 2 h and 5% CO2 prior to BRET measurements. For PKCs, a chemical activator PMA was added in a final concentration of 1 µM was added together with test compounds and tracers (Promega, V1171). To measure BRET, NanoBRET^TM NanoGlo substrate + extracellular NanoLuc inhibitor (Promega, N2160) were added as per the manufacturer’s protocol, and filtered luminescence was measured (450 nm BP filter (donor) and 610 nm LP filter (acceptor)). For the 1-shot test compounds, data were normalized to the tracer control and the background control or control compound plateau and an average and SD were calculated. […] For the control compounds competitive displacement data were normalized to the tracer Ctrl and the background Ctrl and then plotted and fitted using GraphPad Prism 10 software using a normalized 3-parameter curve fit with the following equation: Y = 100/(1 + 10^X−LogIC50).

MAP3K9 = target: T2, MAP3K9 (Homo sapiens, UniProt P80192); conditions: 100% no effect, 0% complete tracer displacement, read-out: Tracer bound
T2 construct: Full-length kinase ORF (Promega, Madison, WI, USA) cloned in frame with a NanoLuc-vector was transfected into HEK293T cells; host or cells: HEK293T
Procedure: as §1, §2

TNK1 = target: T3, TNK1 (Homo sapiens, UniProt Q13470); conditions: 100% no effect, 0% complete tracer displacement, read-out: Tracer bound
T3 construct: Full-length kinase ORF (Promega, Madison, WI, USA) cloned in frame with a NanoLuc-vector; host or cells: HEK293T
Procedure: as §1, §2

PAK4 = target: T4, PAK4 (Homo sapiens, UniProt O96013); conditions: 100% no effect, 0% complete tracer displacement, read-out: Tracer bound
T4 construct: Full-length kinase ORF (Promega, Madison, WI, USA) cloned in frame with a NanoLuc-vector was transfected into HEK293T cells; host or cells: HEK293T
Procedure: as §1, §2

PRKAA2 = target: T5, PRKAA2 (Homo sapiens, UniProt P54646); conditions: 100% no effect, 0% complete tracer displacement, read-out: Tracer bound
T5 construct: Full-length kinase ORF (Promega, Madison, WI, USA) cloned in frame with a NanoLuc-vector was transfected into HEK293T cells; host or cells: HEK293T
Procedure: as §1, §2

MAPK6 = target: T6, MAPK6 (Homo sapiens, UniProt Q16659); conditions: 100% no effect, 0% complete tracer displacement, read-out: Tracer bound
T6 construct: Full-length kinase ORF (Promega, Madison, WI, USA) cloned in frame with a NanoLuc-vector was transfected into HEK293T cells; host or cells: HEK293T
Procedure: as §1, §2

STK38L = target: T7, STK38L (Homo sapiens, UniProt Q9Y2H1); conditions: 100% no effect, 0% complete tracer displacement, read-out: Tracer bound
T7 construct: Full-length kinase ORF (Promega, Madison, WI, USA) cloned in frame with a NanoLuc-vector was transfected into HEK293T cells; host or cells: HEK293T
Procedure: as §1, §2

STK33 = target: T8, STK33 (Homo sapiens, UniProt Q9BYT3); conditions: 100% no effect, 0% complete tracer displacement, read-out: Tracer bound
T8 construct: Full-length kinase ORF (Promega, Madison, WI, USA) cloned in frame with a NanoLuc-vector was transfected into HEK293T cells; host or cells: HEK293T
T8 sequence (Q9BYT3 whole entry): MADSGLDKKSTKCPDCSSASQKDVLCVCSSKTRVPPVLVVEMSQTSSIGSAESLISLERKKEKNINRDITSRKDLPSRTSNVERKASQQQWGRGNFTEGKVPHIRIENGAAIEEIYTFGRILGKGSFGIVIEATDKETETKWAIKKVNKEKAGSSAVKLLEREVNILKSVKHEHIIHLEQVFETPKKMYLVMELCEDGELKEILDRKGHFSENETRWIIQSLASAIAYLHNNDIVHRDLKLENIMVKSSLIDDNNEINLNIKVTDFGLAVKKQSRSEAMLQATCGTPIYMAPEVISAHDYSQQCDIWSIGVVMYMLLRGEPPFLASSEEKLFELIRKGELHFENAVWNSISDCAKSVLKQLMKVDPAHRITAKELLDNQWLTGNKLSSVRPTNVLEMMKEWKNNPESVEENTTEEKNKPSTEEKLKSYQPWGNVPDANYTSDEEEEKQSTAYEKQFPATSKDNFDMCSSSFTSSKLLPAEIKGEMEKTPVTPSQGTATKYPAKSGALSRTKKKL
Procedure: as §1, §2

BRSK1 = target: T9, BRSK1 (Homo sapiens, UniProt Q8TDC3); conditions: 100% no effect, 0% complete tracer displacement, read-out: Tracer bound
T9 construct: Full-length kinase ORF (Promega, Madison, WI, USA) cloned in frame with a NanoLuc-vector was transfected into HEK293T cells; host or cells: HEK293T
T9 sequence (Q8TDC3 whole entry): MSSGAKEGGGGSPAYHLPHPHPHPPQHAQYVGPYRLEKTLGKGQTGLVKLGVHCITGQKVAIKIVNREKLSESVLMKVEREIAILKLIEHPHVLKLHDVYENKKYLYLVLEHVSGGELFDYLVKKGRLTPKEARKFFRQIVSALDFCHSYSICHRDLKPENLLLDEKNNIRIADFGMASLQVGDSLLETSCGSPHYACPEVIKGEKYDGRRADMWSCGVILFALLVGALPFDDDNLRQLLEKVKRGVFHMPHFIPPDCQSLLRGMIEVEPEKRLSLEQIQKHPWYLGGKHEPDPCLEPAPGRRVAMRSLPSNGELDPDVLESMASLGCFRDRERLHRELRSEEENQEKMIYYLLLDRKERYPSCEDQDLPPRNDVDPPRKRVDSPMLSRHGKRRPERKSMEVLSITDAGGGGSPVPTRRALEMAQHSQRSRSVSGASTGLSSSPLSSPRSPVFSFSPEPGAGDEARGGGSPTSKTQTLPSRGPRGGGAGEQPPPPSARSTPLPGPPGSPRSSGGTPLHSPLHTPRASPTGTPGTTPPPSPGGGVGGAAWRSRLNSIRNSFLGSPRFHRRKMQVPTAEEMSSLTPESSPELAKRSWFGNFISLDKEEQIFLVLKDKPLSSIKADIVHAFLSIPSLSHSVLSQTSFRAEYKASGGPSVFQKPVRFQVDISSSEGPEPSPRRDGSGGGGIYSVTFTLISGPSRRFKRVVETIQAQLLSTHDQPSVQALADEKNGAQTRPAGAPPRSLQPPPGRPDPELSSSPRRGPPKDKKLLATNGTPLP
Procedure: as §1, §2

FGFR2 = target: T10, FGFR2 (Homo sapiens, UniProt P21802); conditions: 100% no effect, 0% complete tracer displacement, read-out: Tracer bound
T10 construct: Full-length kinase ORF (Promega, Madison, WI, USA) cloned in frame with a NanoLuc-vector was transfected into HEK293T cells; host or cells: HEK293T
Procedure: as §1, §2

PLK4 = target: T11, PLK4 (Homo sapiens, UniProt O00444); conditions: 100% no effect, 0% complete tracer displacement, read-out: Tracer bound
T11 construct: Full-length kinase ORF (Promega, Madison, WI, USA) cloned in frame with a NanoLuc-vector was transfected into HEK293T cells; host or cells: HEK293T
T11 sequence (O00444 whole entry): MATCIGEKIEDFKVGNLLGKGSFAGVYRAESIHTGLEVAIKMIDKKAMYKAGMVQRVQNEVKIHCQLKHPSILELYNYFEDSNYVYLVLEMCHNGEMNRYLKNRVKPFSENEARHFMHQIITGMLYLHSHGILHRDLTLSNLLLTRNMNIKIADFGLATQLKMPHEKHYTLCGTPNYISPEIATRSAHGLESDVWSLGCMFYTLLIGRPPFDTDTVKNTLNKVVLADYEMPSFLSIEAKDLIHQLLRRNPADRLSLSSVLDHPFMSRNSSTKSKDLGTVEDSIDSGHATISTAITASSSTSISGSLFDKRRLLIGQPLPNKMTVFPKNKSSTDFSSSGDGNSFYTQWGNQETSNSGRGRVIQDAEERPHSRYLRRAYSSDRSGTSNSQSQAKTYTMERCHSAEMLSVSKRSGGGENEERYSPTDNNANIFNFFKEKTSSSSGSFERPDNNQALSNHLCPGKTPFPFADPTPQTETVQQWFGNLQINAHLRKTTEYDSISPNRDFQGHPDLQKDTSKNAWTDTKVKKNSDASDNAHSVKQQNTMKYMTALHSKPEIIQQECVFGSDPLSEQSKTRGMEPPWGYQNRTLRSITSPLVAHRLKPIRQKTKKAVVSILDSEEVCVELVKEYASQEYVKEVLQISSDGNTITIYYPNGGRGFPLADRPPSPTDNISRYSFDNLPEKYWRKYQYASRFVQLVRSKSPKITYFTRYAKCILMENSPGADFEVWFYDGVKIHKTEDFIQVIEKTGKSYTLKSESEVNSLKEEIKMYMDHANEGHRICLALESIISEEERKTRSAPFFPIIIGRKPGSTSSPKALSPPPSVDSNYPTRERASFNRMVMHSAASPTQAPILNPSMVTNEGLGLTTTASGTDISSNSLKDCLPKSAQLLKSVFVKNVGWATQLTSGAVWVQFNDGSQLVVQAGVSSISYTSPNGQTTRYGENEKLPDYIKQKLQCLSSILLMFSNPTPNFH
Procedure: as §1, §2

LATS1 = target: T12, LATS1 (Homo sapiens, UniProt O95835); conditions: 100% no effect, 0% complete tracer displacement, read-out: Tracer bound
T12 construct: Full-length kinase ORF (Promega, Madison, WI, USA) cloned in frame with a NanoLuc-vector was transfected into HEK293T cells; host or cells: HEK293T
Procedure: as §1, §2

CDK2-CCNE1 = target: T13, CDK2-CCNE1 (Homo sapiens, UniProt P24941); conditions: 1 µM; 100% no effect, 0% complete tracer displacement
T13 construct: Full-length kinase ORF (Promega, Madison, WI, USA) cloned in frame with a NanoLuc-vector was transfected into HEK293T cells; host or cells: HEK293T
Procedure: as §1, §2

RIOK2 = target: T14, RIOK2 (Homo sapiens, UniProt Q9BVS4); conditions: 100% no effect, 0% complete tracer displacement, read-out: Tracer bound
T14 construct: Full-length kinase ORF (Promega, Madison, WI, USA) cloned in frame with a NanoLuc-vector was transfected into HEK293T cells; host or cells: HEK293T
T14 sequence (Q9BVS4 whole entry): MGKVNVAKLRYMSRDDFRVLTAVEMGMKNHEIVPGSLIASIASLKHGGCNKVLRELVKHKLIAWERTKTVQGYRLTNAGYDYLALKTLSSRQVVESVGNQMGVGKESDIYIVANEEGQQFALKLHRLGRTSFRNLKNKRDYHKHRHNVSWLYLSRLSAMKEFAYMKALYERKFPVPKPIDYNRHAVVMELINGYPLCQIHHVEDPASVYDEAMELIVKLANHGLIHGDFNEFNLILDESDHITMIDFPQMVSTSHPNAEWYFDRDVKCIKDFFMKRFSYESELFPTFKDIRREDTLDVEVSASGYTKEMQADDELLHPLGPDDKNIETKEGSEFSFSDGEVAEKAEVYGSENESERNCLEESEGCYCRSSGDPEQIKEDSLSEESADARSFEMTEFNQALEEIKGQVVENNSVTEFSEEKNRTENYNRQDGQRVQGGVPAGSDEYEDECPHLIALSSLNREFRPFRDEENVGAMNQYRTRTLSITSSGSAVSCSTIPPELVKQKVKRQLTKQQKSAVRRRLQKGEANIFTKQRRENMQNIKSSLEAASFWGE
Procedure: as §1, §2

PRKAA1 = target: T15, PRKAA1 (Homo sapiens, UniProt Q13131); conditions: 100% no effect, 0% complete tracer displacement, read-out: Tracer bound
T15 construct: Full-length kinase ORF (Promega, Madison, WI, USA) cloned in frame with a NanoLuc-vector was transfected into HEK293T cells; host or cells: HEK293T
Procedure: as §1, §2

EPHA6 = target: T16, EPHA6 (Homo sapiens, UniProt Q9UF33); conditions: 100% no effect, 0% complete tracer displacement, read-out: Tracer bound
T16 construct: Full-length kinase ORF (Promega, Madison, WI, USA) cloned in frame with a NanoLuc-vector was transfected into HEK293T cells; host or cells: HEK293T
Procedure: as §1, §2

RPS6KA1 = target: T17, RPS6KA1 (Homo sapiens, UniProt Q15418); conditions: 100% no effect, 0% complete tracer displacement, read-out: Tracer bound
T17 construct: Full-length kinase ORF (Promega, Madison, WI, USA) cloned in frame with a NanoLuc-vector was transfected into HEK293T cells; host or cells: HEK293T
Procedure: as §1, §2

MAP3K11 = target: T18, MAP3K11 (Homo sapiens, UniProt Q16584); conditions: 1 µM; 100% no effect, 0% complete tracer displacement
T18 construct: Full-length kinase ORF (Promega, Madison, WI, USA) cloned in frame with a NanoLuc-vector was transfected into HEK293T cells; host or cells: HEK293T
Procedure: as §1, §2

CDK18-CCNY = target: T19, CDK18-CCNY (Homo sapiens, UniProt Q07002); conditions: 100% no effect, 0% complete tracer displacement, read-out: Tracer bound
T19 construct: Full-length kinase ORF (Promega, Madison, WI, USA) cloned in frame with a NanoLuc-vector was transfected into HEK293T cells; host or cells: HEK293T
Procedure: as §1, §2

TEK = target: T20, TEK (Homo sapiens, UniProt Q02763); conditions: 100% no effect, 0% complete tracer displacement, read-out: Tracer bound
T20 construct: Full-length kinase ORF (Promega, Madison, WI, USA) cloned in frame with a NanoLuc-vector was transfected into HEK293T cells; host or cells: HEK293T
Procedure: as §1, §2

MAPK9 = target: T21, MAPK9 (Homo sapiens, UniProt P45984); conditions: 1 µM; 100% no effect, 0% complete tracer displacement
T21 construct: Full-length kinase ORF (Promega, Madison, WI, USA) cloned in frame with a NanoLuc-vector was transfected into HEK293T cells; host or cells: HEK293T
Procedure: as §1, §2

AURKC = target: T22, AURKC (Homo sapiens, UniProt Q9UQB9); conditions: 100% no effect, 0% complete tracer displacement, read-out: Tracer bound
T22 construct: Full-length kinase ORF (Promega, Madison, WI, USA) cloned in frame with a NanoLuc-vector was transfected into HEK293T cells; host or cells: HEK293T
T22 sequence (Q9UQB9 whole entry): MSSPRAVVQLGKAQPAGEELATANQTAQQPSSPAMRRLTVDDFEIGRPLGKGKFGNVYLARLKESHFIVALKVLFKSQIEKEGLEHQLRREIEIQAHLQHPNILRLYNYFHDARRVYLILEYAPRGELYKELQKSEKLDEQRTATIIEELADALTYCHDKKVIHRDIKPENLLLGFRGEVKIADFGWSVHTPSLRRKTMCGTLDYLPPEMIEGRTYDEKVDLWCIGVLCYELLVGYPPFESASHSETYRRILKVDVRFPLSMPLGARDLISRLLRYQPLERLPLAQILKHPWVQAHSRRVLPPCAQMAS
Procedure: as §1, §2

ULK2 = target: T23, ULK2 (Homo sapiens, UniProt Q8IYT8); conditions: 100% no effect, 0% complete tracer displacement, read-out: Tracer bound
T23 construct: Full-length kinase ORF (Promega, Madison, WI, USA) cloned in frame with a NanoLuc-vector; host or cells: HEK293T
Procedure: as §1, §2

FGFR1 = target: T24, FGFR1 (Homo sapiens, UniProt P11362); conditions: 100% no effect, 0% complete tracer displacement, read-out: Tracer bound
T24 construct: Full-length kinase ORF (Promega, Madison, WI, USA) cloned in frame with a NanoLuc-vector was transfected into HEK293T cells; host or cells: HEK293T
Procedure: as §1, §2

PTK2 = target: T25, PTK2 (Homo sapiens, UniProt Q05397); conditions: 100% no effect, 0% complete tracer displacement, read-out: Tracer bound
T25 construct: Full-length kinase ORF (Promega, Madison, WI, USA) cloned in frame with a NanoLuc-vector was transfected into HEK293T cells; host or cells: HEK293T
T25 sequence (Q05397 whole entry): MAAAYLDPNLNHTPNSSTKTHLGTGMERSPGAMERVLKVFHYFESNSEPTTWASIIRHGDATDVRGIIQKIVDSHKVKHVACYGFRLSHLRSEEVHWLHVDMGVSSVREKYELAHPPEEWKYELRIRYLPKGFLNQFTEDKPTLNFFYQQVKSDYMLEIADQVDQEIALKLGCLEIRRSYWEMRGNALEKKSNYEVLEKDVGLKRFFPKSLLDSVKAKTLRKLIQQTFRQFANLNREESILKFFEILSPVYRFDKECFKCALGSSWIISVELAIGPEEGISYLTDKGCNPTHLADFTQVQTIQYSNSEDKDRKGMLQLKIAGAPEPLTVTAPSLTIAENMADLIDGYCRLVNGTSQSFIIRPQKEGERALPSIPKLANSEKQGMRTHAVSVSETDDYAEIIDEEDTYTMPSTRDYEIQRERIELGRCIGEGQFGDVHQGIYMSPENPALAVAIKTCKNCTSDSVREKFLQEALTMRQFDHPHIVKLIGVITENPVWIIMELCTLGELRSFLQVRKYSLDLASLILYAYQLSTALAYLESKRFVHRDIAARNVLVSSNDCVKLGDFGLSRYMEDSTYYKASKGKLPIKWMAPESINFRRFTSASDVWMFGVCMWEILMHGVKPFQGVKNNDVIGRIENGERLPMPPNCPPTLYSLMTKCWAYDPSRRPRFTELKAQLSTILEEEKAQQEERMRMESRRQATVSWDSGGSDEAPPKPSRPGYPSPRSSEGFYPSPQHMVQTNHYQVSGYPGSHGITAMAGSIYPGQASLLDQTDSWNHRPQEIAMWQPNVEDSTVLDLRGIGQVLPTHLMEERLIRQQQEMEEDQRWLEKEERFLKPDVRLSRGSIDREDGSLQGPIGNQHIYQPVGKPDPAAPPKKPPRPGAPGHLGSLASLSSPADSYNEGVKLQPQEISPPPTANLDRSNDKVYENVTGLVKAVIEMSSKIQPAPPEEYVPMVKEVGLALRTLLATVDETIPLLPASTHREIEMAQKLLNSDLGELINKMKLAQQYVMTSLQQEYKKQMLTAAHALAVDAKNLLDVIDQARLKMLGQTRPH
Procedure: as §1, §2

HUNK = target: T26, HUNK (Homo sapiens, UniProt P57058); conditions: 100% no effect, 0% complete tracer displacement, read-out: Tracer bound
T26 construct: Full-length kinase ORF (Promega, Madison, WI, USA) cloned in frame with a NanoLuc-vector was transfected into HEK293T cells; host or cells: HEK293T
Procedure: as §1, §2

ERN2 = target: T27, ERN2 (Homo sapiens, UniProt Q76MJ5); conditions: 100% no effect, 0% complete tracer displacement, read-out: Tracer bound
T27 construct: Full-length kinase ORF (Promega, Madison, WI, USA) cloned in frame with a NanoLuc-vector was transfected into HEK293T cells; host or cells: HEK293T
Procedure: as §1, §2

MAP4K1 = target: T28, MAP4K1 (Homo sapiens, UniProt Q92918); conditions: 100% no effect, 0% complete tracer displacement, read-out: Tracer bound
T28 construct: Full-length kinase ORF (Promega, Madison, WI, USA) cloned in frame with a NanoLuc-vector was transfected into HEK293T cells; host or cells: HEK293T
Procedure: as §1, §2

CDK4-CCND3 = target: T29, CDK4-CCND3 (Homo sapiens, UniProt P11802); conditions: 100% no effect, 0% complete tracer displacement, read-out: Tracer bound
T29 construct: Full-length kinase ORF (Promega, Madison, WI, USA) cloned in frame with a NanoLuc-vector was transfected into HEK293T cells; host or cells: HEK293T
T29 sequence (P11802 whole entry): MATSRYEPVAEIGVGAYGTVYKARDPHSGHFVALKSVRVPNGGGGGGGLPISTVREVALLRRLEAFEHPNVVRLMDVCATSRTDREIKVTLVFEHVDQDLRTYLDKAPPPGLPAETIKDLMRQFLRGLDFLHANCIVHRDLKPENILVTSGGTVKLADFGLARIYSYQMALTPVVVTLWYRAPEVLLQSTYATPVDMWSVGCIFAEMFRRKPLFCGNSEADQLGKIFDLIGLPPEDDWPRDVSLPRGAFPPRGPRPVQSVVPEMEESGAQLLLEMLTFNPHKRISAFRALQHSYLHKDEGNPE
T29 sequence (P30281 whole entry partner): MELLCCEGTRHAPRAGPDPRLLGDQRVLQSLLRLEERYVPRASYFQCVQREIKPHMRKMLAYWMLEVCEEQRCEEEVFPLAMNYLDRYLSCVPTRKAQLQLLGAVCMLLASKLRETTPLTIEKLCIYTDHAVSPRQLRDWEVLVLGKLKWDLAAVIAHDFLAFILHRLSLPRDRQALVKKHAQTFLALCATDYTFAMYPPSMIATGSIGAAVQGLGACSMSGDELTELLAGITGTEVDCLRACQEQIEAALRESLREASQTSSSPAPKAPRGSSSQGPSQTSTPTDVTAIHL
Procedure: as §1, §2

MYLK3 = target: T30, MYLK3 (Homo sapiens, UniProt Q32MK0); conditions: 100% no effect, 0% complete tracer displacement, read-out: Tracer bound
T30 construct: Full-length kinase ORF (Promega, Madison, WI, USA) cloned in frame with a NanoLuc-vector was transfected into HEK293T cells; host or cells: HEK293T
Procedure: as §1, §2

Compound `CNC(=O)c1cc(Oc2ccc(NC(=O)Nc3cc(C(C)(C)C)on3)cc2)ccn1` [MA68, reference compound] has a Tracer bound (ULK3v1) of 96.1%, a remaining activity at 1 µM (MAP3K9) of 111% and a remaining activity at 1 µM (TNK1) of 114%. The remaining activity at 1 µM (PAK4) was 97.7%, the remaining activity at 1 µM (PRKAA2) was 109% and the remaining activity at 1 µM (MAPK6) was 113%. It also gave a remaining activity at 1 µM (STK38L) of 90%, a remaining activity at 1 µM (STK33) of 94.8% and a remaining activity at 1 µM (BRSK1) of 106%. It also gave a remaining activity at 1 µM (FGFR2) of 40.7%, a remaining activity at 1 µM (PLK4) of 107% and a remaining activity at 1 µM (LATS1) of 106%. It also gave a Tracer bound (CDK2-CCNE1) of 96.0%, a remaining activity at 1 µM (RIOK2) of 109% and a remaining activity at 1 µM (PRKAA1) of 114%. It also gave a remaining activity at 1 µM (EPHA6) of 23.6%, a remaining activity at 1 µM (RPS6KA1) of 108% and a Tracer bound (MAP3K11) of 109.2%. For the same compound, the remaining activity at 1 µM (CDK18-CCNY) was 28.6%, the remaining activity at 1 µM (TEK) was 12.6% and the Tracer bound (MAPK9) was 94.9%. For the same compound, the remaining activity at 1 µM (AURKC) was 102%, the remaining activity at 1 µM (ULK2) was 91.7% and the remaining activity at 1 µM (FGFR1) was 69.2%. The remaining activity at 1 µM (PTK2) was 118%, the remaining activity at 1 µM (HUNK) was 88.2% and the remaining activity at 1 µM (ERN2) was 120%. It also gave a remaining activity at 1 µM (MAP4K1) of 101%, a remaining activity at 1 µM (CDK4-CCND3) of 29.7% and a remaining activity at 1 µM (MYLK3) of 119%.
